Results on two molecules are retold here after US20230212215A1, “GLUCOCORTICOID RECEPTOR MODULATORS” (TRUSTEES OF DARTMOUTH COLLEGE, priority 2020, published 2023).

The assay has as its target T1, human GR (Homo sapiens, UniProt P04150).
T1 construct: purchased Indigo Biosciences
T1 sequence (P04150 1-777): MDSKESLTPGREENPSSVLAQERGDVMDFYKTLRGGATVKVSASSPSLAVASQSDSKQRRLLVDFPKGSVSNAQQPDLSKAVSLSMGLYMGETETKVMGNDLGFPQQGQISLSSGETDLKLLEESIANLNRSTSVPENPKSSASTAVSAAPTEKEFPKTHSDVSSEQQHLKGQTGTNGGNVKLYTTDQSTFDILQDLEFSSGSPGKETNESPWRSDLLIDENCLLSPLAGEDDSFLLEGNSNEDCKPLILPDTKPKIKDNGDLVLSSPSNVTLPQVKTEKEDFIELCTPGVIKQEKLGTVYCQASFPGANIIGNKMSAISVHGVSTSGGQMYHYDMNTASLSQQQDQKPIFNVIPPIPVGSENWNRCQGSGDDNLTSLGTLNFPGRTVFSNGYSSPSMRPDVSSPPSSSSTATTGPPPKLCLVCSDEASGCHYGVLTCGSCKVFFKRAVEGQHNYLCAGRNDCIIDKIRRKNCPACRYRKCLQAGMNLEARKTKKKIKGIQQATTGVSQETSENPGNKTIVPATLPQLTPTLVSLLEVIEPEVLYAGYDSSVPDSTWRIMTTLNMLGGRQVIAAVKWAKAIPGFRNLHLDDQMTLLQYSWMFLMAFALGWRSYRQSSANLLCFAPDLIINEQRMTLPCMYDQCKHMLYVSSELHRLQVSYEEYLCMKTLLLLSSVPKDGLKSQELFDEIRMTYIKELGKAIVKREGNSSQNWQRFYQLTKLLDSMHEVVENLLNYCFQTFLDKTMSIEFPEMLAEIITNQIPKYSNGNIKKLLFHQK
Kind of assay: human GR antagonist assay (Indigo Biosciences). The assay is classed as cell-based. The source says:
The activity of a compound can be determined using various known methods. For example, GR assays can be used. Such GR assays include binding assays using, for example, cells transfected with the human glucocorticoid receptor (NR3C1). Several cell based model systems that allow sensitive detection and monitoring of steroids or other compounds with GR bioactivity are known. Most cell based GR reporter models use transgenic gene constructs that include a glucocorticoid response element (GRE) that controls reporter gene (e.g., lucifersrase) expression. For example, a human GR Reporter Assay System is commercially available from Indigo Biosciecnes. […] The principle application of such an assay product is to quantify functional activities, either agonist or antagonist, that a compound may exert against the human glucocorticoid receptor.
The activity of certain compounds were tested in a human GR antagonist assay (Indigo Biosciences).

Each structure is given as a SMILES string.

`Cc1ncccc1NC(=O)c1ccc2c(c1)CCC1=C3C[C@H](O)C[C@]3(C)CC[C@]12Cc1ccccc1` [Compound A, (9S,13S,16R)-9-benzyl-16-hydroxy-13-methyl-N-(2-methylpyridin-3-yl)-7,9,11,12,13,15,16,17-octahydro-6H-cyclopenta[α]phenanthrene-3-carboxamide]: the “IC50 (nM)” value (Table 1) is “No activity”. Besides, where the note is “Table A”, the EC50 entry is recorded as “not active”. Besides, the IC50 entry (text of Example 2) is reported as “not active”.
For `CC#C[C@]1(O)CC[C@H]2[C@@H]3CCC4=CC(=O)CCC4=C3[C@@H](c3ccc(N(C)C)cc3)C[C@@]21C` [Mifepristone, reference compound], the HillSlope (Table 1) was found to be 0.8706.
